Experimental findings from PubChem BioAssay AID1918930 (Molecular Pharmacology Branch, DTP, NCI, 2023) are described below.

Several values for one entry are separate records, joined by “and”; a condition that tells them apart may be missing. Equal values may be shown once.

This experiment has as its system 233499-124-R-J3-PDC complex spheroid viability, % test/control. Kind of experiment: Anticancer human tumor 233499-124-R-J3-PDC patient-derived colon adenocarcinoma cell line growth inhibition. The following applies: for viability, T/C: stronger effect = lower value. In short, it runs like this: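 Multicellular complex spheroids of tumor cells with human endothelial cells (HUVEC) and mesenchymal stem cells; the LSD1 inhibitor iadademstat was combined with standard-of-care or investigational agents. Top concentration at or near clinical Cmax, half-log dilutions; final DMSO ≤0.25%.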

Where [1] appears, read: curve of first compound, second compound 0.1 µM.
Setting [2] is: curve of first compound, second compound 0.316 µM.
Setting [3] is: curve of first compound, second compound 1 µM.
Where [4] appears, read: curve of first compound, second compound 3.16 µM.
Setting [5] is: curve of first compound, second compound 10 µM.
Where [6] appears, read: second compound 0.1 µM, first compound 0.0316 µM.
Setting [7] is: second compound 0.1 µM, first compound 0.1 µM.
Where [8] appears, read: second compound 0.316 µM, first compound 0.0316 µM.
[9] abbreviates: second compound 0.316 µM, first compound 0.1 µM.
The mark [10] stands for this setting: second compound 1 µM, first compound 0.0316 µM.
The mark [11] stands for this setting: second compound 1 µM, first compound 0.1 µM.
Where [12] appears, read: second compound 3.16 µM, first compound 0.0316 µM.
[13] abbreviates: second compound 3.16 µM, first compound 0.1 µM.
The mark [14] stands for this setting: second compound 10 µM, first compound 0.0316 µM.
Setting [15] is: second compound 10 µM, first compound 0.1 µM.
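Further: spheroids exposed to agents for one week before readout.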

As usually defined, the IC50 is the concentration that inhibits the measured activity by half. Usually viability, T/C stands for the result in the treated group divided by that in the control group, in per cent. On to `COc1cc(C2c3cc4c(cc3C(OC3OC5COC(C)OC5C(O)C3O)C3COC(=O)C23)OCO4)cc(OC)c1O` (stereo not given) + NC1CC1c1ccc(-c2cccc(O)c2)cc1, for which the IC50 is, setting by setting: under setting [1], 717 nM; under setting [2], 1690 nM; under setting [3], 1540 nM; under setting [4], 728 nM; under setting [5], 209 nM. The viability, T/C reads like this: (second compound 0.1 µM, first compound 0.00949 µM) 104%; (second compound 0.1 µM, first compound 0.03 µM) 101%; (second compound 0.1 µM, first compound 0.0949 µM) 86.5%; (second compound 0.1 µM, first compound 0.3 µM) 57%; (second compound 0.1 µM, first compound 0.949 µM) 51.9%; (second compound 0.1 µM, first compound 3 µM) 41.5%. Further, the viability, T/C was 109% (second compound 0.316 µM, first compound 0.00949 µM); 113% (second compound 0.316 µM, first compound 0.03 µM); 94.8% (second compound 0.316 µM, first compound 0.0949 µM); 73.4% (second compound 0.316 µM, first compound 0.3 µM); 51.5% (second compound 0.316 µM, first compound 0.949 µM); 47.8% (second compound 0.316 µM, first compound 3 µM). The viability, T/C was 94.3% (second compound 1 µM, first compound 0.00949 µM); 82.1% (second compound 1 µM, first compound 0.03 µM); 73.3% (second compound 1 µM, first compound 0.0949 µM); 60.6% (second compound 1 µM, first compound 0.3 µM); 53.7% (second compound 1 µM, first compound 0.949 µM); 45.5% (second compound 1 µM, first compound 3 µM). Further, the viability, T/C by setting is: (second compound 3.16 µM, first compound 0.00949 µM) 91.1%; (second compound 3.16 µM, first compound 0.03 µM) 86.2%; (second compound 3.16 µM, first compound 0.0949 µM) 73%; (second compound 3.16 µM, first compound 0.3 µM) 62.1%; (second compound 3.16 µM, first compound 0.949 µM) 42%; (second compound 3.16 µM, first compound 3 µM) 46.6%. Besides, the viability, T/C was 71.4% (second compound 10 µM, first compound 0.00949 µM); 72.4% (second compound 10 µM, first compound 0.03 µM); 63.1% (second compound 10 µM, first compound 0.0949 µM); 44% (second compound 10 µM, first compound 0.3 µM); 46.5% (second compound 10 µM, first compound 0.949 µM); 40.6% (second compound 10 µM, first compound 3 µM).

For the compound `CC(C)CC(NC(=O)CNC(=O)c1cc(Cl)ccc1Cl)B1OC(=O)CC(CC(=O)O)(C(=O)O)O1` (stereo not given), the viability, T/C (compound 0.000316 µM) is 90.6% and 106%; the viability, T/C (compound 0.001 µM) is 89.8% and 95.7%; the viability, T/C (compound 0.00316 µM) is 102% and 78.5%; the viability, T/C (compound 0.01 µM) is 9.9% and 4.05%; the viability, T/C (compound 0.0316 µM) is 7.32% and 0.21%; the viability, T/C (compound 0.1 µM) was 5.06% and 0.23%. For the same compound, the IC50 (curve of compound) was 5.78 nM and 4.92 nM.

Take `CC1COCCN1c1cc(C2(S(C)(=N)=O)CC2)nc(-c2ccnc3[nH]ccc23)n1` (stereo not given) + NC1CCC(NC2CC2c2ccccc2)CC1: the IC50 reads like this: under setting [1], above 10000 nM; under setting [2], above 10000 nM; under setting [3], above 10000 nM; under setting [4], above 10000 nM; under setting [5], 1390 nM. Further, the viability, T/C is 105% under setting [6]; 91.5% under setting [7]; 87.8% (second compound 0.1 µM, first compound 0.316 µM); 82.8% (second compound 0.1 µM, first compound 1 µM); 62.6% (second compound 0.1 µM, first compound 3.16 µM); 59.9% (second compound 0.1 µM, first compound 10 µM). The viability, T/C was 102% under setting [8]; 98.8% under setting [9]; 95.8% (second compound 0.316 µM, first compound 0.316 µM); 100% (second compound 0.316 µM, first compound 1 µM); 90% (second compound 0.316 µM, first compound 3.16 µM); 58.1% (second compound 0.316 µM, first compound 10 µM). Besides, the viability, T/C by setting is: under setting [10], 98.8%; under setting [11], 78.5%; (second compound 1 µM, first compound 0.316 µM) 84.3%; (second compound 1 µM, first compound 1 µM) 66.3%; (second compound 1 µM, first compound 3.16 µM) 63.4%; (second compound 1 µM, first compound 10 µM) 65%. Also, the viability, T/C is, setting by setting: under setting [12], 79.5%; under setting [13], 92.4%; (second compound 3.16 µM, first compound 0.316 µM) 80%; (second compound 3.16 µM, first compound 1 µM) 67.8%; (second compound 3.16 µM, first compound 3.16 µM) 61.7%; (second compound 3.16 µM, first compound 10 µM) 51.6%. For the same compound, the viability, T/C under setting [14] was 81.4%; the viability, T/C under setting [15] is 71.3%; the viability, T/C (second compound 10 µM, first compound 0.316 µM) is 80.9%; the viability, T/C (second compound 10 µM, first compound 1 µM) was 52.5%; the viability, T/C (second compound 10 µM, first compound 3.16 µM) was 43.9%; the viability, T/C (second compound 10 µM, first compound 10 µM) was 43.3%.

Regarding `CC(C)c1c(-c2ccccc2)nc2c(C#N)c[nH]n2c1=O`, the viability, T/C was 90.9% and 92.4% (compound 0.0316 µM); 103% and 96.3% (compound 0.1 µM); 92.6% and 89.1% (compound 0.316 µM); 95% and 106% (compound 1 µM); 105% and 102% (compound 3.16 µM); 96.2% and 115% (compound 10 µM). Under “curve of compound”, the half-maximal inhibitory concentration (IC50) is above 10000 nM.

As for `CC(C)CC(NC(=O)C(Cc1ccccc1)NC(=O)c1cnccn1)B(O)O` (stereo not given) + NC1CC1c1ccc(-c2cccc(O)c2)cc1, the IC50 by setting is: under setting [1], 0.491 nM; under setting [2], 0.445 nM; under setting [3], 0.493 nM; under setting [4], 0.528 nM; under setting [5], 0.389 nM. Besides, the viability, T/C was 80.7% (second compound 0.1 µM, first compound 0.000316 µM); 0.42% (second compound 0.1 µM, first compound 0.001 µM); 0.06% (second compound 0.1 µM, first compound 0.00316 µM); 0.06% (second compound 0.1 µM, first compound 0.01 µM); 0.07% under setting [6]; 0.23% under setting [7]. In addition, the viability, T/C (second compound 0.316 µM, first compound 0.000316 µM) is 71%; the viability, T/C (second compound 0.316 µM, first compound 0.001 µM) is 0.32%; the viability, T/C (second compound 0.316 µM, first compound 0.00316 µM) was 0.06%; the viability, T/C (second compound 0.316 µM, first compound 0.01 µM) is 0.23%; the viability, T/C under setting [8] is 0.05%; the viability, T/C under setting [9] was 0.21%. The viability, T/C (second compound 1 µM, first compound 0.000316 µM) is 80.7%; the viability, T/C (second compound 1 µM, first compound 0.001 µM) is 0.91%; the viability, T/C (second compound 1 µM, first compound 0.00316 µM) was 0.05%; the viability, T/C (second compound 1 µM, first compound 0.01 µM) is 0.04%; the viability, T/C under setting [10] was 0.06%; the viability, T/C under setting [11] is 0.2%. In addition, the viability, T/C runs as follows: (second compound 3.16 µM, first compound 0.000316 µM) 89.8%; (second compound 3.16 µM, first compound 0.001 µM) 0.32%; (second compound 3.16 µM, first compound 0.00316 µM) 0.08%; (second compound 3.16 µM, first compound 0.01 µM) 0.06%; under setting [12], 0.07%; under setting [13], 0.23%. The viability, T/C runs as follows: (second compound 10 µM, first compound 0.000316 µM) 60.1%; (second compound 10 µM, first compound 0.001 µM) 3.72%; (second compound 10 µM, first compound 0.00316 µM) 0.8%; (second compound 10 µM, first compound 0.01 µM) 0.22%; under setting [14], 0.42%; under setting [15], 0.34%.

As for `CC1(C)CCC(CN2CCN(c3ccc(C(=O)NS(=O)(=O)c4ccc(NCC5CCOCC5)c([N+](=O)[O-])c4)c(Oc4cnc5[nH]ccc5c4)c3)CC2)=C(c2ccc(Cl)cc2)C1`, the viability, T/C was 96.6% and 90.8% (compound 0.0316 µM); 93.2% and 96.6% (compound 0.1 µM); 118% and 99.7% (compound 0.316 µM); 112% and 93.5% (compound 1 µM); 120% and 40.8% (compound 3.16 µM). For the same compound, the IC50 (curve of compound) was > 10000 nM and 2590 nM.
